Starred links: 1 amine or outer side, 2 acyl side, 3 side chain; linkers in the order of their positions; H or OH if unused. Non-standard residues stand in square brackets, D forms with d. Residues, ends and D or L forms follow the SMILES beside them. Groups on a side chain read outwards from the residue. *: point of attachment. C20 diacid = O=C(O)CCCCCCCCCCCCCCCCCCC(=O)*; C18 diacid = O=C(O)CCCCCCCCCCCCCCCCC(=O)*; γGlu = O=C(O)[C@H](CCC(=O)[*:2])N[*:1]; εLys = N[C@@H](CCCCN[*:1])C(=O)[*:2]; Trx = NC[C@H]1CC[C@H](C(=O)O)CC1; AEEA = NCCOCCOCC(=O)O; Aib = CC(C)(N)C(=O)O
What was measured:
mouse GLP-1 receptor = target: T1, mouse GLP-1 receptor (Mus musculus, UniProt O35659)
T1 sequence (O35659 22-463): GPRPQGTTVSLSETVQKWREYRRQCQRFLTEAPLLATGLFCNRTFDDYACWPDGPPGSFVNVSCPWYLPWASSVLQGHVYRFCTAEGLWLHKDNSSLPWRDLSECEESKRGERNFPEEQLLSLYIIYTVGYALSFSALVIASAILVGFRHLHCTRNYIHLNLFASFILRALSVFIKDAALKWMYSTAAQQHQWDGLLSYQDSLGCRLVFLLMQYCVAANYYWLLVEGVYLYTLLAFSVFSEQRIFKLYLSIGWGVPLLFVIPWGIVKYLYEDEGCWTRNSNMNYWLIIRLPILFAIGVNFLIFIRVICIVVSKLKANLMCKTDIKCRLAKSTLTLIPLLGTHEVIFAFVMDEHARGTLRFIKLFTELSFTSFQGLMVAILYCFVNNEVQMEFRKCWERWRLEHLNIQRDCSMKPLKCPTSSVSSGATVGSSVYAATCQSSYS
Method: The in vitro functional potency is the measure of target receptor activation in a whole cell assay.
In vitro functional potency was determined by measuring the response of the target receptor in a reporter gene assay in individual cell lines. […] When the respective receptor is activated, it results in the production of cAMP, which in turn results in expression of the luciferase protein. When assay incubation is completed, luciferase substrate (luciferin) is added resulting in the enzymatic conversion of luciferin to oxyluciferin and producing bioluminescence. The luminescence is measured as the readout for the assay.
The cells lines used in these assays were BHK cells with BHKTS13 as a parent cell line. The cell lines were derived from a clone containing the CRE luciferase element and were established by further transfection with the respective receptor to obtain the relevant cell line.
The cells were cultured at 37° C. with 5% CO2 in Cell Culture Medium. They were aliquoted and stored in liquid nitrogen. The cells were kept in continuous culture and were seeded out the day before each assay.
GLP-1R and GcgR Cell Culture Medium consisted of DMEM medium with 10% FBS, 500 μg/mL G418, and 300 μg/mL hygromycin. GIPR Cell Culture Medium consisted of DMEM medium with 10% FBS, 400 μg/mL G418, and 300 μg/mL hygromycin. Assay Buffer consisted of DMEM w/o phenol red, 10 mM Hepes, 1×Glutamax, 1% ovalbumin, and 0.1% Pluronic F-68 with the addition of HSA at twice the final assay concentration.
• 1) Cells were plated at 5000 cells/well and incubated overnight in the assay plate. • 2) Cells were washed once in DPBS. • 3) Stocks of the test compounds and reference compounds in concentrations ranging from 100-300 μM were diluted 1:150 in Assay Buffer. Compounds were then diluted 1:10 in column 1 of a 96 deep well dilution plate and then carried across the row creating a 3.5 fold, 12 point dilution curve. • 4) Assay Buffer (50 μl aliquot) with or without HSA was added to each well in the assay plate. • 5) A 50 μl aliquot of compound or blank was transferred from the dilution plate to the assay plate containing the Assay Buffer with or without HSA. • 6) The assay plate was incubated for 3 h in a 5% CO2 incubator at 37° C. 7) The cells were washed once with DPBS. • 8) A 100 μl aliquot of DPBS was added to each well of the assay plate. • 9) A 100 μl aliquot of steadylite plus reagent (light sensitive) was added to each well of the assay plate. • 10) Each assay plate was covered with aluminum foil to protect it from light and shaken at 250 RPM for 30 min at room temperature. • 11) Each assay plate was read in a microtiter plate reader.
The data from the microtiter plate reader was first regressed in an Excel in order to calculate the x-axis, log scale concentrations based on the individual test compound's stock concentration and the dilutions of the assay. […] The software performs a non-linear regression (log(agonist) vs response). A minimum of two replicates was measured for each sample. The reported values are averages of the replicates.

mouse GIP receptor = target: T2, mouse GIP receptor (Mus musculus, UniProt Q0P543); test: cell-based
T2 sequence (Q0P543 19-460): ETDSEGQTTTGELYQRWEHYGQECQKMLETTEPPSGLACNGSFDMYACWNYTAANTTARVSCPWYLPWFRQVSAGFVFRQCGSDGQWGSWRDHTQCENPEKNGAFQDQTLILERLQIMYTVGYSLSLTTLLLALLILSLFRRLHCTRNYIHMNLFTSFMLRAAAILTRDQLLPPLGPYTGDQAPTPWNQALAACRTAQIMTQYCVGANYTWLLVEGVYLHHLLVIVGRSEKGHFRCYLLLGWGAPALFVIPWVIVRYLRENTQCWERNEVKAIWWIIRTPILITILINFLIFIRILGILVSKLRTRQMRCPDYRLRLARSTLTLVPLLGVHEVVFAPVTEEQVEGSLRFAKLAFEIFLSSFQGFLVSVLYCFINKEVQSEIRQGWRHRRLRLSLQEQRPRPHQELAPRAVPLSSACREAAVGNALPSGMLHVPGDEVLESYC

human GLP-1 receptor = human GLP-1 receptor (Homo sapiens, UniProt P43220); test: cell-based; details: hGLP-1R
Sequence of human GLP-1 receptor (P43220 24-463): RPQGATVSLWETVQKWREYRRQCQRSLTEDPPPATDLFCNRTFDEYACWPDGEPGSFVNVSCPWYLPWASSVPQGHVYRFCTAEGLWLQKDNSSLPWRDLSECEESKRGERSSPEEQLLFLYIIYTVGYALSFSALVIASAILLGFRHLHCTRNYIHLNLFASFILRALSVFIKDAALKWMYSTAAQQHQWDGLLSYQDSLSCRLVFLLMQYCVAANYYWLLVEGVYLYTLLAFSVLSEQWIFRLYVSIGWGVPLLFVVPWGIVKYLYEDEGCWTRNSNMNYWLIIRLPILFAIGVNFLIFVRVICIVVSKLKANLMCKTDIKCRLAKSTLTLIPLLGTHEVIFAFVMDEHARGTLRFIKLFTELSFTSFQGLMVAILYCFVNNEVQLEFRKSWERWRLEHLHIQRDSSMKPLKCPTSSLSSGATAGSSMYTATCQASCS

Row | Structure (SMILES) | EC50 (mouse GLP-1 receptor) | EC50 (mouse GIP receptor) | EC50 (human GLP-1 receptor; CRE Luc 0% HSA EC50, 0% HSA) | EC50 (human GLP-1 receptor; CRE Luc 1% HSA EC50, 1% HSA)
1 | CC[C@H](C)[C@H](NC(=O)[C@H](CO)NC(=O)[C@H](Cc1ccc(O)cc1)NC(=O)[C@H](CC(=O)O)NC(=O)[C@H](CO)NC(=O)[C@@H](NC(=O)[C@H](Cc1ccccc1)NC(=O)[C@@H](NC(=O)CNC(=O)[C@H](CCC(=O)O)NC(=O)C(C)(C)NC(=O)[C@@H](N)Cc1ccc(O)cc1)[C@@H](C)O)[C@@H](C)O)C(=O)N[C@@H](Cc1ccc(O)cc1)C(=O)N[C@@H](CC(C)C)C(=O)N[C@@H](CCC(=O)O)C(=O)N[C@@H](CCCCN)C(=O)N[C@@H](CCCCNC(=O)COCCOCCNC(=O)COCCOCCNC(=O)CC[C@H](NC(=O)CCCCCCCCCCCCCCCCCCC(=O)O)C(=O)O)C(=O)N[C@@H](C)C(=O)N[C@@H](C)C(=O)NC(C)(C)C(=O)N[C@@H](CCC(=O)O)C(=O)N[C@@H](Cc1ccccc1)C(=O)N[C@H](C(=O)N[C@@H](CC(N)=O)C(=O)N[C@@H](Cc1c[nH]c2ccccc12)C(=O)N[C@@H](CC(C)C)C(=O)N[C@@H](CC(C)C)C(=O)N[C@@H](C)C(=O)NCC(=O)NCC(=O)N1CCC[C@H]1C(=O)N[C@@H](CO)C(=O)N[C@@H](CO)C(=O)NCC(=O)N[C@@H](C)C(=O)N1CCC[C@H]1C(=O)N1CCC[C@H]1C(=O)N1CCC[C@H]1C(=O)N[C@@H](CO)C(N)=O)C(C)C [Compound 30] (H-Y[Aib]EGTFTSDYSIYLEKK([AEEA-AEEA-γGlu-C20 diacid])AA[Aib]EFVNWLLAGGPSSGAPPPS-NH2; N-terminus assumed) | 1.9 pM | 201 pM | 8.4 pM | 353 pM
2 | CC[C@H](C)[C@H](NC(=O)[C@H](CO)NC(=O)[C@H](Cc1ccc(O)cc1)NC(=O)[C@H](CC(=O)O)NC(=O)[C@H](CO)NC(=O)[C@@H](NC(=O)[C@H](Cc1ccccc1)NC(=O)[C@@H](NC(=O)CNC(=O)[C@H](CCC(=O)O)NC(=O)C(C)(C)NC(=O)[C@@H](N)Cc1ccc(O)cc1)[C@@H](C)O)[C@@H](C)O)C(=O)N[C@@H](Cc1ccc(O)cc1)C(=O)N[C@@H](CC(C)C)C(=O)N[C@@H](CCC(=O)O)C(=O)N[C@@H](CCC(=O)O)C(=O)N[C@@H](CCC(N)=O)C(=O)N[C@@H](C)C(=O)N[C@@H](C)C(=O)NC(C)(C)C(=O)N[C@@H](CCCCNC(=O)COCCOCCNC(=O)COCCOCCNC(=O)CC[C@H](NC(=O)[C@H]1CC[C@H](CNC(=O)CCCCCCCCCCCCCCCCCCC(=O)O)CC1)C(=O)O)C(=O)N[C@@H](Cc1ccccc1)C(=O)N[C@H](C(=O)N[C@@H](CC(N)=O)C(=O)N[C@@H](Cc1c[nH]c2ccccc12)C(=O)N[C@@H](CC(C)C)C(=O)N[C@@H](CC(C)C)C(=O)N[C@@H](C)C(=O)NCC(=O)NCC(=O)N1CCC[C@H]1C(=O)N[C@@H](CO)C(=O)N[C@@H](CO)C(=O)NCC(=O)N[C@@H](C)C(=O)N1CCC[C@H]1C(=O)N1CCC[C@H]1C(=O)N1CCC[C@H]1C(=O)N[C@@H](CO)C(N)=O)C(C)C [Compound 25] (H-Y[Aib]EGTFTSDYSIYLEEQAA[Aib]K([AEEA-AEEA-γGlu-Trx-C20 diacid])FVNWLLAGGPSSGAPPPS-NH2; N-terminus assumed) | 2.9 pM | 340 pM | 4.8 pM | 602 pM
3 | CC[C@H](C)[C@H](NC(=O)[C@H](CO)NC(=O)[C@H](Cc1ccc(O)cc1)NC(=O)[C@H](CC(=O)O)NC(=O)[C@H](CO)NC(=O)[C@@H](NC(=O)[C@H](Cc1ccccc1)NC(=O)[C@@H](NC(=O)CNC(=O)[C@H](CCC(=O)O)NC(=O)C(C)(C)NC(=O)[C@@H](N)Cc1ccc(O)cc1)[C@@H](C)O)[C@@H](C)O)C(=O)N[C@@H](Cc1ccc(O)cc1)C(=O)N[C@@H](CC(C)C)C(=O)N[C@@H](CCC(=O)O)C(=O)N[C@@H](CCCCN)C(=O)N[C@@H](CCC(N)=O)C(=O)N[C@@H](C)C(=O)N[C@@H](C)C(=O)NC(C)(C)C(=O)N[C@@H](CCCCNC(=O)[C@@H](N)CCCCNC(=O)[C@@H](N)CCCCNC(=O)CC[C@H](NC(=O)CCCCCCCCCCCCCCCCC(=O)O)C(=O)O)C(=O)N[C@@H](Cc1ccccc1)C(=O)N[C@H](C(=O)N[C@@H](CC(N)=O)C(=O)N[C@@H](Cc1c[nH]c2ccccc12)C(=O)N[C@@H](CC(C)C)C(=O)N[C@@H](CC(C)C)C(=O)N[C@@H](C)C(=O)NCC(=O)NCC(=O)N1CCC[C@H]1C(=O)N[C@@H](CO)C(=O)N[C@@H](CO)C(=O)NCC(=O)N[C@@H](C)C(=O)N1CCC[C@H]1C(=O)N1CCC[C@H]1C(=O)N1CCC[C@H]1C(=O)N[C@@H](CO)C(N)=O)C(C)C [Compound 15] (H-Y[Aib]EGTFTSDYSIYLEKQAA[Aib]K([εLys-εLys-γGlu-C18 diacid])FVNWLLAGGPSSGAPPPS-NH2; N-terminus assumed) | 1.7 pM | 27.3 pM | 6.1 pM | 128 pM
4 | CC[C@H](C)[C@H](NC(=O)[C@H](CO)NC(=O)[C@H](Cc1ccc(O)cc1)NC(=O)[C@H](CC(=O)O)NC(=O)[C@H](CO)NC(=O)[C@@H](NC(=O)[C@H](Cc1ccccc1)NC(=O)[C@@H](NC(=O)CNC(=O)[C@H](CCC(=O)O)NC(=O)[C@H](C)NC(=O)[C@@H](Cc1ccc(O)cc1)NC(C)=O)[C@@H](C)O)[C@@H](C)O)C(=O)N[C@@H](Cc1ccc(O)cc1)C(=O)N[C@@H](CC(C)C)C(=O)N[C@@H](CC(=O)O)C(=O)N[C@@H](CCCCN)C(=O)N[C@@H](CCC(N)=O)C(=O)N[C@@H](C)C(=O)N[C@@H](C)C(=O)NC(C)(C)C(=O)N[C@@H](CCCCNC(=O)[C@@H](N)CCCCNC(=O)[C@@H](N)CCCCNC(=O)CC[C@H](NC(=O)CCCCCCCCCCCCCCCCC(=O)O)C(=O)O)C(=O)N[C@@H](Cc1ccccc1)C(=O)N[C@H](C(=O)N[C@@H](CC(N)=O)C(=O)N[C@@H](Cc1c[nH]c2ccccc12)C(=O)N[C@@H](CC(C)C)C(=O)N[C@@H](CC(C)C)C(=O)N[C@@H](C)C(=O)NCC(=O)NCC(=O)N1CCC[C@H]1C(=O)N[C@@H](CO)C(=O)N[C@@H](CO)C(=O)NCC(=O)N[C@@H](C)C(=O)N1CCC[C@H]1C(=O)N1CCC[C@H]1C(=O)N1CCC[C@H]1C(=O)N[C@@H](CO)C(N)=O)C(C)C [Compound 8] (Ac-[dY]AEGTFTSDYSIYLDKQAA[Aib]K([εLys-εLys-γGlu-C18 diacid])FVNWLLAGGPSSGAPPPS-NH2) | 17 pM |  |  | 
5 | CC[C@H](C)[C@H](NC(=O)[C@H](CO)NC(=O)[C@H](Cc1ccc(O)cc1)NC(=O)[C@H](CC(=O)O)NC(=O)[C@H](CO)NC(=O)[C@@H](NC(=O)[C@H](Cc1ccccc1)NC(=O)[C@@H](NC(=O)CNC(=O)[C@H](CCC(=O)O)NC(=O)C(C)(C)NC(=O)[C@@H](N)Cc1ccc(O)cc1)[C@@H](C)O)[C@@H](C)O)C(=O)N[C@@H](Cc1ccc(O)cc1)C(=O)N[C@@H](CC(C)C)C(=O)N[C@@H](CC(=O)O)C(=O)N[C@@H](CCCCN)C(=O)N[C@@H](CCC(N)=O)C(=O)N[C@@H](C)C(=O)N[C@@H](C)C(=O)NC(C)(C)C(=O)N[C@@H](CCCCNC(=O)CC[C@H](NC(=O)CC[C@H](NC(=O)CC[C@H](NC(=O)CCCCCCCCCCCCCCCCC(=O)O)C(=O)O)C(=O)O)C(=O)O)C(=O)N[C@@H](Cc1ccccc1)C(=O)N[C@H](C(=O)N[C@@H](CC(N)=O)C(=O)N[C@@H](Cc1c[nH]c2ccccc12)C(=O)N[C@@H](CC(C)C)C(=O)N[C@@H](CC(C)C)C(=O)N[C@@H](C)C(=O)NCC(=O)NCC(=O)N1CCC[C@H]1C(=O)N[C@@H](CO)C(=O)N[C@@H](CO)C(=O)NCC(=O)N[C@@H](C)C(=O)N1CCC[C@H]1C(=O)N1CCC[C@H]1C(=O)N1CCC[C@H]1C(=O)N[C@@H](CO)C(N)=O)C(C)C [Compound 6] (H-Y[Aib]EGTFTSDYSIYLDKQAA[Aib]K([γGlu-γGlu-γGlu-C18 diacid])FVNWLLAGGPSSGAPPPS-NH2; N-terminus assumed) | 2.3 pM |  | 5.9 pM | 

Source: patent US20230346961A1, “GLP-1 AND GIP RECEPTOR CO-AGONISTS” (Novo Nordisk A/S, priority 2020, published 2023)
